The source of these data is US8686022B2, “7-(piperazine-1-ymethyl)-1H-indole-2-carboxylic acid (phenyl)-amide derivatives and allied compounds as p38 MAP kinase inhibitors for the treatment of respiratory diseases” (Boehringer Ingelheim International GmbH, priority 2008, dated 2014).

The structures appear in SMILES notation. ≈ marks a conversion by molar mass, not a printed value. Some results are limits rather than exact numbers.

The target in series [1] is p38 MAP-kinase (Homo sapiens, UniProt Q16539). Put plainly: p38 MAP-kinase enzymatic assay (phosphorylation of GST-tagged ATF2, chemoluminescence). It is filed as biochemical. The following applies: inhibitor concentration 1 μM; activated p38 MAP-kinase 1 nM; ATP 100 μM; read-out: p38 (% Inh @ 1 μM). In outline:
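Activated p38 MAP-kinase (1 nM) preincubated 4 h at ambient temperature with 1 μM compound in HEPES pH 7, MgCl2, DTT, TWEEN20, then reacted 1 h with 10 nM GST-ATF2 and 100 μM ATP. Phospho-ATF2 detected by AlphaScreen-type bead luminescence; percent inhibition at 1 μM versus uninhibited and kinase-free controls.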

Series [2] has as its target cytochrome P450 2C9 (Homo sapiens, UniProt P11712). In words: Determining the cyp2C9 activity (O-demethylation of [O-methyl-14C]-naproxen). It is filed as in vitro ADME. The following applies: human recombinant cytochrome P450 2C9; 37° C.; <0.4 μM when inhibition >50% at lowest concentration; read-out: CYP 2C9 IC50. Summed up:
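Recombinant CYP2C9 (40 pmol/ml) with 80 μM [O-methyl-14C]-naproxen in 0.1 M Tris, 5 mM MgCl2; test compound at 50, 10, 2 and 0.4 μM in duplicate. Started with 1 mM NADPH, stopped after 15 min with TCA; 14C-formaldehyde separated by solid-phase extraction and counted by scintillation. IC50 from least-squares fit.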

A short description of series [3]: Determining the solubility (saturated solution in McIlvaine buffer pH 7.4, UV spectroscopy). It is filed as physicochemical. The following applies: pH 7.4, aqueous buffer, thermodynamic from solid, shaken 2 hours, 0.75 mg solid in 0.75 ml. In outline:
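Excess solid (0.75 mg per 0.75 ml) shaken 2 h in McIlvaine buffer pH 7.4, then filtered through 0.45 μm PTFE membrane with first drops discarded. Dissolved amount measured by UV spectroscopy.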

Chain of p38 MAP-kinase (Q16539 whole entry): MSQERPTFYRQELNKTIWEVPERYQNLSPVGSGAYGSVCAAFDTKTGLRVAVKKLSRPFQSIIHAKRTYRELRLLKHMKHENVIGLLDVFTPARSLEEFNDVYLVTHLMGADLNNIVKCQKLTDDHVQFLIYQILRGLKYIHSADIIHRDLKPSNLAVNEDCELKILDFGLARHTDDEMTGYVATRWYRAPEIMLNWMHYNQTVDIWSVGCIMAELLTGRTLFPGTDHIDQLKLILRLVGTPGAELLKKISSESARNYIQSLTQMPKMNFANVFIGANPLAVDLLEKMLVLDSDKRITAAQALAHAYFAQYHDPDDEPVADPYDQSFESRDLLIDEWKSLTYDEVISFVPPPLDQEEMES
Chain of cytochrome P450 2C9 (P11712 whole entry): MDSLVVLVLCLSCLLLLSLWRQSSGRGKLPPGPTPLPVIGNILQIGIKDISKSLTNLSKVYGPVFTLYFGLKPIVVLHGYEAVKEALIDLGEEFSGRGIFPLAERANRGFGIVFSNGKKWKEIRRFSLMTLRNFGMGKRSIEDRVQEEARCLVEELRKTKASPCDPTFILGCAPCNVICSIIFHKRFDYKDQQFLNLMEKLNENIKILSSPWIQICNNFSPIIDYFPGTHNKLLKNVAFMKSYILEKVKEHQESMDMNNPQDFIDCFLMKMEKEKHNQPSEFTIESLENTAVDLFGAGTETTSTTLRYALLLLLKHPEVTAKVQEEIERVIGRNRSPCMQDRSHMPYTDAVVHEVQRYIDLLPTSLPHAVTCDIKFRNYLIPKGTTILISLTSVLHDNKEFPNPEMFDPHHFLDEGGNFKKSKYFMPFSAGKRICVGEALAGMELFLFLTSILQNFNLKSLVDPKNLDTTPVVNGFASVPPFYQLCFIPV

The term IC50 denotes the concentration needed to halve the response being measured. As a reminder, the solubility is the dissolved amount per volume that the medium holds. The low end stands for a poorly soluble substance, the high end for a readily soluble substance. With `COc1c(NC(=O)c2cc3cccc(CN4CCN(C(=O)C5CCCN(C)C5)CC4)c3n2C)cc(C(C)(C)C)cc1NS(C)(=O)=O` (stereo not drawn) [Example 4, 1-methyl-7-[4-(1-methyl-piperidine-3-carbonyl)-piperazin-1-ylmethyl]-1H-indole-2-carboxylic acid (5-tert-butyl-3-methanesulphonylamino-2-methoxy-phenyl)-amide], the inhibition at 1 µM in series [1] was found to be 99.4%. Besides, the IC50 in series [2] was 440 nM. The amount in solution in series [3] (solubility at 2 h) came to 78 µg/mL (≈ 119 µM).

As for `COc1c(NC(=O)c2cc3cccc(CN4CCN(C(=O)[C@H]5CCN(C)C5)CC4)c3n2C)cc(C(C)(C)C)cc1NS(C)(=O)=O` [Example 5, (S)-1-methyl-7-[4-(1-methyl-pyrrolidine-3-carbonyl)-piperazin-1-ylmethyl]-1H-indole-2-carboxylic acid (5-tert-butyl-3-methanesulphonylamino-2-methoxy-phenyl)-amide], the inhibition at 1 µM in series [1] was 98.6%. Further, in series [2], the half-maximal inhibitory concentration (IC50) was found to be 1150 nM. Besides, the concentration in solution in series [3] (solubility at 2 h) was 620 µg/mL (≈ 971 µM).

With `COc1c(NC(=O)c2cc3cccc(CN4CCN(C(=O)CN5CCC(N(C)C)CC5)CC4)c3n2C)cc(C(C)(C)C)cc1NS(C)(=O)=O` [Example 6, 7-{4-[2-(4-dimethylamino-piperidin-1-yl)-acetyl]-piperazin-1-ylmethyl}-1-methyl-1H-indole-2-carboxylic acid-(5-tert-butyl-3-methanesulphonylamino-2-methoxy-phenyl)-amide], the inhibition at 1 µM in series [1] came out at 98.6%. The 50% inhibitory concentration (IC50) in series [2] is 3430 nM. Moreover, the solubility at 2 h in series [3] was greater than 1000 µg/mL.

In the case of `COc1c(NC(=O)c2cc3cccc(CN4CCN(C(=O)CN5CCNCC5)CC4)c3n2C)cc(C(C)(C)C)cc1NS(C)(=O)=O` [Example 7, 1-methyl-7-[4-(2-piperazin-1-yl-acetyl)-piperazin-1-ylmethyl]-1H-indole-2-carboxylic acid-(5-tert-butyl-3-methanesulphonylamino-2-methoxy-phenyl)-amide], in series [1], the inhibition at 1 µM was 98.7%. The IC50 in series [2] was 5320 nM. The solubility at 2 h in series [3] was determined as 110 µg/mL (≈ 168 µM).

On to `COc1c(NC(=O)c2cc3cccc(CN4CCCN(C(=O)[C@@H]5CCCN5C)CC4)c3n2C)cc(C(C)(C)C)cc1NS(C)(=O)=O` [Example 8, 1-methyl-7-[4-((2S)-1-methyl-pyrrolidine-2-carbonyl)-[1,4]diazepan-1-ylmethyl]-1H-indole-2-carboxylic acid-(5-tert-butyl-3-methanesulphonylamino-2-methoxy-phenyl)-amide], for which, in series [1], the inhibition at 1 µM amounted to 97.3%. The IC50 in series [2] is 1670 nM. In series [3], this compound had a solubility at 2 h of 280 µg/mL (≈ 429 µM).

Regarding `COc1c(CN2CCN(C)CC2)cc(C(C)(C)C)cc1NC(=O)c1cc2cccc(CN3CCN(C(=O)[C@@H]4CCCN4C)CC3)c2n1C` [Example 9, (S)-1-methyl-7-[4-(1-methyl-pyrrolidine-2-carbonyl)-piperazin-1-ylmethyl]-1H-indole-2-carboxylic acid-[5-tert-butyl-2-methoxy-3-(4-methyl-piperazin-1-ylmethyl)-phenyl]-amide], in series [1], the inhibition at 1 µM came out at 98.8%. Moreover, the IC50 in series [2] is 11000 nM. Moreover, the solubility at 2 h in series [3] was greater than 1000 µg/mL.

Regarding `COc1c(NC(=O)c2cc3cccc(CN4CCN(C(=O)[C@@H]5CCCN5C)CC4)c3n2C)cc(C(C)(C)C)cc1C(=O)NC1CC1` [Example 10, (S)-1-methyl-7-[4-(1-methyl-pyrrolidine-2-carbonyl)-piperazin-1-ylmethyl]-1H-indole-2-carboxylic acid-(5-tert-butyl-3-cyclopropylcarbamoyl-2-methoxy-phenyl)-amide], in series [1], the inhibition at 1 µM worked out at 99.1%. For the same compound, the IC50 in series [2] stood at 1320 nM. The solubility at 2 h in series [3] was found to be 420 µg/mL (≈ 668 µM).

`COc1c(NC(=O)c2cc3cccc(CN4CCN(C(=O)[C@@H]5CCCN5C)CC4)c3n2C)cc(C(C)(C)C)cc1C(=O)N(C)C` [Example 11, (S)-1-methyl-7-[4-(1-methyl-pyrrolidine-2-carbonyl)-piperazin-1-ylmethyl]-1H-indole-2-carboxylic acid-(5-tert-butyl-3-dimethylcarbamoyl-2-methoxy-phenyl)-amide]: the inhibition at 1 µM in series [1] was 92%. Also, the IC50 in series [2] came to 5900 nM. This compound also returned a solubility at 2 h in series [3] of 450 µg/mL (≈ 730 µM).

For `CCC(=O)Nc1cc(C(C)(C)C)cc(NC(=O)c2cc3cccc(CN4CCN(C(=O)[C@@H]5CCCN5C)CC4)c3n2C)c1OC` [Example 12, (S)-1-methyl-7-[4-(1-methyl-pyrrolidine-2-carbonyl)-piperazin-1-ylmethyl]-1H-indole-2-carboxylic acid-(5-tert-butyl-2-methoxy-3-propionylamino-phenyl)-amide], in series [1], the inhibition at 1 µM turned out to be 97.9%. Further, in series [2], the half-inhibitory concentration (IC50) worked out at 500 nM. Further, the solubility at 2 h in series [3] is 660 µg/mL (≈ 1070 µM).

`CCCS(=O)(=O)Nc1cc(C(C)(C)C)cc(NC(=O)c2cc3cccc(CN4CCN(C(=O)[C@@H]5CCCN5C)CC4)c3n2C)c1OC` [Example 13, (S)-1-methyl-7-[4-(1-methyl-pyrrolidine-2-carbonyl)-piperazin-1-ylmethyl]-1H-indole-2-carboxylic acid-[5-tert-butyl-2-methoxy-3-(propane-1-sulphonylamino)-phenyl]-amide]: the inhibition at 1 µM in series [1] came to 99.1%. Moreover, the half-inhibitory concentration (IC50) in series [2] was 500 nM. The concentration in solution in series [3] (solubility at 2 h) was 17 µg/mL (≈ 25.5 µM).

For `COc1c(NC(=O)c2cc3cccc(CN4CCN(C(=O)[C@@H]5CCCN5C)CC4)c3n2C)cc(C(F)(F)C(F)(F)F)cc1NS(C)(=O)=O` [Example 14, (S)-1-methyl-7-[4-(1-methyl-pyrrolidine-2-carbonyl)-piperazin-1-ylmethyl]-1H-indole-2-carboxylic acid-(3-methanesulphonylamino-2-methoxy-5-pentafluoroethyl-phenyl)-amide], the inhibition at 1 µM in series [1] worked out at 98.8%. Further, in series [2], the half-inhibitory concentration (IC50) came out at 1430 nM. The compound further came in with a solubility at 2 h in series [3] of 27 µg/mL (≈ 38.5 µM).

Consider `COc1c(CO)cc(C(C)(C)C)cc1NC(=O)c1cc2cccc(CN3CCN(C(=O)[C@@H]4CCCN4C)CC3)c2n1C` [Example 15, (S)-1-methyl-7-[4-(1-methyl-pyrrolidine-2-carbonyl)-piperazin-1-ylmethyl]-1H-indole-2-carboxylic acid-(5-tert-butyl-3-hydroxymethyl-2-methoxy-phenyl)-amide], for which, in series [1], the inhibition at 1 µM turned out to be 99.4%. For the same compound, the IC50 in series [2] is 2540 nM. In addition, the solubility at 2 h in series [3] was 230 µg/mL (≈ 399 µM).

On to `COc1c(NC(=O)c2cc3cccc(CN4CCN(C(=O)CC5CC5)CC4)c3n2C)cc(C(C)(C)C)cc1NS(C)(=O)=O` [Va, reference compound], for which the inhibition at 1 µM in series [1] is 98.8%. Also, in series [2], the IC50 is less than 400 nM. Further, the solubility at 2 h in series [3] was less than 1 µg/mL.

Take `COc1c(NC(=O)c2cc3cccc(CN4CCN(C(=O)C5(C)CC5)CC4)c3n2C)cc(C(C)(C)C)cc1NS(C)(=O)=O` [Vb, reference compound]: in series [1], the inhibition at 1 µM amounted to 99.1%. In addition, the half-maximal inhibitory concentration (IC50) in series [2] was less than 400 nM. In addition, the solubility at 2 h in series [3] is less than 1 µg/mL.

Take `COc1c(NC(=O)c2cc3cccc(CN4CCN(C(=O)C5CC5)CC4)c3n2C)cc(C(C)(C)C)cc1NS(C)(=O)=O` [Vc, reference compound]: the inhibition at 1 µM in series [1] was determined as 99.1%. In series [2], the half-maximal inhibitory concentration (IC50) was less than 400 nM. The compound also registered a solubility at 2 h in series [3] of less than 1 µg/mL.
